Measurements taken from patent publication US12539281B2 (priority 2021, dated 2026).
Where two headings read alike, the source gives them in different places.

What was measured:
[1] = Comparison of the toxicity of IA NEO100 and IA EA (Experiment 21)
Method: The safety profile of IA 0.3% NEO100 vs. IA 0.3% EA are compared. […] There are 15 experimental mice in each testing group. The potential adverse effects are evaluated.

[2] = cited from earlier work
[3] = test system: blood-brain barrier (BBB); details: IA NEO100, IA mannitol; stated for comparison, no test described; cited from earlier work
[4] = test system: blood-brain barrier (BBB); test: Comparison of intracardiac EA and NEO100 mediated BBB opening, EB dye (Comparative Experiment 19, Experiment 20); assay type: in vivo, mice
Method: Intracardiac injected various concentrations of EA (at 25%, 20%, 3%, 0.3%, and 0.1%, 0.03%, 0.01%) and NEO100 (at 25%, 20%, 3%, 0.3%, and 0.1%, 0.03%, 0.01%) are used on mice to test their effects on BBB disruption and evaluated by the observation of extravasated EB dye in the brain tissues. […] Photographs of the perfused brain tissues from the experimental mice treated with […] EA and NEO100 are taken for observation and comparison.
The same procedure as experiment 19 was performed with IA 0.3% NEO100 with 2% EB dye solution.

[5] = test system: blood-brain barrier (BBB); test: IA ethyl alcohol, NEO100 or mannitol mediated BBB disruption, extravasated EB dye in perfused mouse brain (Experiments 1-3); assay type: in vivo, mice; details: for EB dye / EB dye penetration level / Patchy, or punctate pattern of EB dye: perfused mouse brain
Method: The method of IA and IC injection is similar to the IV push in the clinic, which comprises essentially the steps of: • pushing the injection composition at a particular infusion flow rate immediately after the placement of the IA catheter into the internal carotid artery (ICA) or the insertion of the injection needle into the left ventricle via the ultrasound-guided intracardiac (IC) puncture at room temperature.
When performing the IA and IC injections, the infusion flow rate is about 5-7 μl/second (0.3-0.45 ml/min), the infusion volume is about […] of the body weight (at 1 μl/g, volume/weight ratio), and USP purified water or sodium chloride is used to reconstitute varied EA solutions at room temperature.
Intracardiac injection of NEO100 or EA can be carried out through the procedure of ultrasound-guided intracardiac (IC) injection. […] The mouse is anesthetized in an induction chamber using 2-3% isoflurane in 100% oxygen at a rate of 0.2-0.5 L/min. Fur over the thorax area is removed and the animal is placed in a stereotactic frame in supine position, securing the upper and lower limbs to avoid body movement. The ultrasound transducer is placed above the chest of the animal, and the injection syringe is anchored to a platform to avoid erratic needle movements. An electrocardiogram monitor is used to monitor heart function during the intracardiac injection.
EB dye is used as the non-BBB permeable substance.
Photographs of the perfused brain tissues of the experimental mice after treatment are taken.
Extravasated EB dye is used as the non-BBB permeable substance.

[6] = test system: blood-brain barrier (BBB)
[7] = IA injection 0.3%, 15 mice per group
[8] = IA injection 0.3%, 15 mice per group, number of mice

C=C(C)[C@@H]1CC=C(CO)CC1 [NEO100, perillyl alcohol]
Mortality [1, 7]: 53.33% | tested animals that experienced adverse effects [1, 7]: almost all | Immediate Sudden Death [1, 8]: 3 | Intermediate-lasting epilepsy post-injection leading to death [1, 8]: 2 | Long-lasting epilepsy post-injection leading death [1, 8]: 3 | Moderate-lasting epilepsy post-injection and survival to fully recovery [1, 8]: 3 | Transient, mild, or occasional epilepsy post-injection and survival to fully recovery [1, 8]: 4 | overall mortality rate ([1]; repeated comparative experiments of IA EA and IA NEO100): around 60% | solubility in water [2]: water-insoluble | interval window of the breached BBB [3]: 4 h | brain finding in sudden-death mouse (inferior view) ([4]; IA 0.3% NEO100 with 2% EB dye, mouse died right after treatment): bleeding and a blood clot | pattern of breached BBB, coronal section ([4]; IA 25% NEO, mice): random, haphazard, sporadic, patchy, or punctate pattern | dose response of BBB disruption ([4]; intracardiac 25%, 20%, 3%, 0.3%, 0.1%, 0.03%, 0.01%, mice): dose-dependent manner | EB dye ([5]; IA agent at 0.1%): Observed | EB dye penetration level ([5]; IA agent at 0.1%): Few Patchy | Patchy, or punctate pattern of EB dye ([5]; IA agent at 0.1%): Observed | EB dye ([5]; IA agent at 0.3%): Observed | EB dye penetration level ([5]; IA agent at 0.3%): Widely | Patchy, or punctate pattern of EB dye ([5]; IA agent at 0.3%): Observed | EB dye ([5]; IA agent at 3%): Observed | EB dye penetration level ([5]; IA agent at 3%): Widely | Patchy, or punctate pattern of EB dye ([5]; IA agent at 3%): Observed | EB dye ([5]; IA agent at 5%): Observed | EB dye penetration level ([5]; IA agent at 5%): Widely | Patchy, or punctate pattern of EB dye ([5]; IA agent at 5%): Observed

OC[C@@H](O)[C@@H](O)[C@H](O)[C@H](O)CO [mannitol]
interval window of the breached BBB [3]: 6 to 7 h | EB dye penetration level ([5]; IA agent at 0.1%): Not | EB dye penetration level ([5]; IA agent at 0.3%): Not | EB dye penetration level ([5]; IA agent at 3%): Not | EB dye penetration level ([5]; IA agent at 5%): Not | brain damage ([5]; IA mannitol at 0.1%, 0.3%, 3%, and 5%, mice): Some brain damage is observed | disrupted BBB after IC mannitol ([5]; IC application of varied volumes of high concentrations of mannitol, mice): No disrupted BBB is observed | EB (induced BBB disruption) ([6]; group A: 1800 μl 25% mannitol infused in 30 seconds): observed | EB (induced BBB disruption) ([6]; group C: 300 μl 25% mannitol at regular speed in 1 minute, warmed to 37° C.): not observed
